Assay results published in ChEMBL document CHEMBL4251700, “Novel Staphyloxanthin Inhibitors with Improved Potency against Multidrug Resistant Staphylococcus aureus” (ACS Med Chem Lett, 2018).
Residue numbers refer to the chain shown, from its start. Calls of active or inactive are those of the source. No cut-off for these calls is given here.

Tests used:
[1] = biological target: T1, 4,4'-diapophytoene desaturase (4,4'-diaponeurosporene-forming) (Staphylococcus aureus (strain Newman), UniProt O07855); assay: Inhibition of CrtN in Staphylococcus aureus Newman assessed as reduction in staphyloxanthin levels after 48 hrs by spectrophotometric method-based pigment inhibition assay; parameters: species or system Staphylococcus aureus subsp. aureus str. Newman
T1 sequence (O07855 whole entry): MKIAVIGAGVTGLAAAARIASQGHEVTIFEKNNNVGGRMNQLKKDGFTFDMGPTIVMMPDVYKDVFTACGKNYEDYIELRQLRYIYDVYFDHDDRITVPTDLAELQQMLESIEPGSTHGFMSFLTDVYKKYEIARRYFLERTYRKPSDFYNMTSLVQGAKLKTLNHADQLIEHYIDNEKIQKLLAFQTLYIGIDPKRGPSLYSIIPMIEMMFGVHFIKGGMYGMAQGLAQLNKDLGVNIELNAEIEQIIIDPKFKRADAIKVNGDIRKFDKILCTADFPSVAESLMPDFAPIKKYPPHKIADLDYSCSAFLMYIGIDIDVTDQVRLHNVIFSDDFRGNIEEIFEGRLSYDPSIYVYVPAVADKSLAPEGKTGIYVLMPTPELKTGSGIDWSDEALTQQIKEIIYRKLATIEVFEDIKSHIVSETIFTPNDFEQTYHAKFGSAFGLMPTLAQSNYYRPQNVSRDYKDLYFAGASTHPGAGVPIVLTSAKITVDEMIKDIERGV

[2] = biological target: T1, 4,4'-diapophytoene desaturase (4,4'-diaponeurosporene-forming); assay: Inhibition of CrtN in linezolid-resistant Staphylococcus aureus NRS271 assessed as reduction in staphyloxanthin levels after 48 hrs by spectrophotometric method-based pigment inhibition assay
[3] = biological target: T2, 4,4'-diapophytoene desaturase (4,4'-diaponeurosporene-forming) (Staphylococcus aureus (strain Mu50 / ATCC 700699), UniProt Q99R76); assay: Inhibition of CrtN in vancomycin-intermediate Staphylococcus aureus Mu50 assessed as reduction in staphyloxanthin levels after 48 hrs by spectrophotometric method-based pigment inhibition assay; parameters: species or system Staphylococcus aureus subsp. aureus Mu50
T2 sequence (Q99R76 whole entry): T1 sequence (O07855 whole entry)

[4] = biological target: T1, 4,4'-diapophytoene desaturase (4,4'-diaponeurosporene-forming); assay: Inhibition of Staphylococcus aureus Newman […]-tagged CrtN expressed in Escherichia coli BL21(DE3))/pET28a::CrtN assessed as reduction in staphyloxanthin levels using diapophytoene as substrate after overnight incubation; parameters: species or system Staphylococcus aureus subsp. aureus str. Newman
[5] = Solubility of the compound in water at 10 mg measured after 24 hrs by HPLC method; type: physicochemical
[6] = biological target: T3, 4,4'-diapophytoene desaturase (4,4'-diaponeurosporene-forming) (Staphylococcus aureus (strain MW2), UniProt Q8NUQ6); assay: Inhibition of CrtN in methicillin-resistant Staphylococcus aureus LAC USA300 assessed as reduction in staphyloxanthin levels after 48 hrs by spectrophotometric method-based pigment inhibition assay; parameters: species or system Staphylococcus aureus subsp. aureus USA300
T3 sequence (Q8NUQ6 whole entry): T1 sequence (O07855 whole entry) with R500Q

[7] = biological target: T3, 4,4'-diapophytoene desaturase (4,4'-diaponeurosporene-forming); assay: Inhibition of CrtN in methicillin-resistant Staphylococcus aureus USA400 MW2 assessed as reduction in staphyloxanthin levels after 48 hrs by spectrophotometric method-based pigment inhibition assay; parameters: species or system Staphylococcus aureus subsp. aureus MW2
[8] = biological target: Voltage-gated inwardly rectifying potassium channel KCNH2 (Homo sapiens, UniProt Q12809); assay: Inhibition of recombinant human ERG expressed in CHO cells at -80 mV holding potential measured after 3 minutes by automated whole cell patch clamp Qpatch method; type: cell-based
[9] = system: Staphylococcus aureus; assay: Antibacterial activity against vancomycin-intermediate Staphylococcus aureus Mu50 infected in BALB/c mouse assessed as reduction of bacterial burden in liver at 0.4 mg, ip bid for 3.5 days administered 6 hrs post bacterial infection measured 84 hrs post infection; type: functional, organism-based
[10] = system: Staphylococcus aureus; assay: Antibacterial activity against linezolid-resistant Staphylococcus aureus NRS271 infected in BALB/c mouse assessed as reduction of bacterial burden in heart at 0.4 mg, ip bid administered at 24 hrs prior to bacterial infection dosed at 12 intervals for 4.5 days
[11] = system: Staphylococcus aureus; assay: Antibacterial activity against vancomycin-intermediate Staphylococcus aureus Mu50 infected in BALB/c mouse assessed as reduction of bacterial burden in liver at 0.4 mg, ip bid administered at 12 hrs prior to bacterial infection dosed at 12 intervals for 4.5 days; type: functional, organism-based
[12] = system: Staphylococcus aureus; assay: Antibacterial activity against vancomycin-intermediate Staphylococcus aureus Mu50 infected in BALB/c mouse assessed as reduction of bacterial burden in liver at 0.1 mg, ip bid for 3.5 days administered 6 hrs post bacterial infection measured 84 hrs post infection; type: functional, organism-based
[13] = system: Staphylococcus aureus; assay: Antibacterial activity against linezolid-resistant Staphylococcus aureus NRS271 infected in BALB/c mouse assessed as reduction of bacterial burden in liver at 0.1 mg, ip bid administered at 12 hrs prior to bacterial infection dosed at 12 intervals for 4.5 days; type: functional, organism-based
[14] = system: Staphylococcus aureus; assay: Antibacterial activity against linezolid-resistant Staphylococcus aureus NRS271 infected in BALB/c mouse assessed as reduction of bacterial burden in liver at 0.4 mg, ip bid administered at 12 hrs prior to bacterial infection dosed at 12 intervals for 4.5 days; type: functional, organism-based
[15] = system: Staphylococcus aureus; assay: Antibacterial activity against vancomycin-intermediate Staphylococcus aureus Mu50 infected in BALB/c mouse assessed as reduction of bacterial burden in heart at 0.1 mg, ip bid for 3.5 days administered 6 hrs post bacterial infection measured 84 hrs post infection relative to control; type: functional
[16] = system: Staphylococcus aureus; assay: Antibacterial activity against vancomycin-intermediate Staphylococcus aureus Mu50 infected in BALB/c mouse assessed as reduction of bacterial burden in heart at 0.4 mg, ip bid for 3.5 days administered 6 hrs post bacterial infection measured 84 hrs post infection relative to control; type: functional
[17] = system: Staphylococcus aureus; assay: Antibacterial activity against linezolid-resistant Staphylococcus aureus NRS271 infected in BALB/c mouse assessed as reduction of bacterial burden in heart at 0.1 mg, ip bid administered at 24 hrs prior to bacterial infection dosed at 12 intervals for 4.5 days
[18] = system: Staphylococcus aureus; assay: Antibacterial activity against vancomycin-intermediate Staphylococcus aureus Mu50 infected in BALB/c mouse assessed as reduction of bacterial burden in liver at 0.1 mg, ip bid administered at 12 hrs prior to bacterial infection dosed at 12 intervals for 4.5 days; type: functional, organism-based
[19] = Half life in human liver microsomes at 2 uM by LC-MS/MS analysis; type: ADME, microsome
[20] = Cytotoxicity against HEK293T cells after 72 hrs by CCK8 assay; type: cell-based, HEK-293T; conditions: human
[21] = Cytotoxicity against human HepG2 cells after 72 hrs by CCK8 assay; type: cell-based

Chain of Voltage-gated inwardly rectifying potassium channel KCNH2 (Q12809 whole entry): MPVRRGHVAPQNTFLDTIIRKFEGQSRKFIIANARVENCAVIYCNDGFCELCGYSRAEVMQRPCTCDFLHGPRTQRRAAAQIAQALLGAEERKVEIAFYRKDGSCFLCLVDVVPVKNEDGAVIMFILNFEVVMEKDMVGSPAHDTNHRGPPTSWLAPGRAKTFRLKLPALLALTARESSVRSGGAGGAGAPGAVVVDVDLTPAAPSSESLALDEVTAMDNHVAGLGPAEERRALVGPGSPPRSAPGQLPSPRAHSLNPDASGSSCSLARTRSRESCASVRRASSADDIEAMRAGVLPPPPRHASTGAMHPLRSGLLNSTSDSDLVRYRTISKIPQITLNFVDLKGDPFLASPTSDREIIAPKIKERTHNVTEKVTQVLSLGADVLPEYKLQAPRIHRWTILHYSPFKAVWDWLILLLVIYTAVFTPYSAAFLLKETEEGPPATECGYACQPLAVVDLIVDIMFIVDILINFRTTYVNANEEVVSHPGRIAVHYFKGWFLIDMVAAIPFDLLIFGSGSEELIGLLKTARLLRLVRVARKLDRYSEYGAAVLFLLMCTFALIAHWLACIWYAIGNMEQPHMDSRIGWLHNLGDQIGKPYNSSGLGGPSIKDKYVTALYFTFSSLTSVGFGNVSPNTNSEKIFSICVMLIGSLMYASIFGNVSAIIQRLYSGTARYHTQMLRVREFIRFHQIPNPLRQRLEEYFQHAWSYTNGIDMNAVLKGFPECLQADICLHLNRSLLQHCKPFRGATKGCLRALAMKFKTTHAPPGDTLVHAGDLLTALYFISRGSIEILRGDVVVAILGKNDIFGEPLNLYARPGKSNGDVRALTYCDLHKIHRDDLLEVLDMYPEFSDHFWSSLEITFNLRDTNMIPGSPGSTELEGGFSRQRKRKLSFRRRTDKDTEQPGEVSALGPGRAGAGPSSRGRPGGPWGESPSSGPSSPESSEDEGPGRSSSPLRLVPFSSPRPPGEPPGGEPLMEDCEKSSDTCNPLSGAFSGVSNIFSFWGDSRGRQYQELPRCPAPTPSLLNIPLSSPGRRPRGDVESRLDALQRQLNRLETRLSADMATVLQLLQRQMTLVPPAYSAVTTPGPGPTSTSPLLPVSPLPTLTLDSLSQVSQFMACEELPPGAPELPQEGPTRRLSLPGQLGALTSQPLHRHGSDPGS

## CN(C/C=C/c1ccc([N+](=O)[O-])cc1)Cc1ccc2c(c1)OCCO2
[1]
  IC50: 18.9 nM

## COc1ccc(/C=C/CN(C)Cc2ccc3c(c2)OCCO3)cc1F
[1]
  IC50: 57.9 nM

## CN(C/C=C/c1ccccc1F)Cc1ccc2c(c1)OCCO2
[1]
  IC50: > 1000 nM

## CN(C/C=C/c1cccc(Cl)c1)Cc1ccc2c(c1)OCCO2
[1]
  IC50: 112 nM

## CN(C/C=C/c1ccc(C(F)(F)F)cc1)Cc1ccc2c(c1)OCCO2.Cl
[2]
  IC50: 1.1 nM
[3]
  IC50: 1.2 nM
[4]
  IC50: 341 nM
[5]
  solubility at 24 h: 13500 µg/mL
[6]
  IC50: 5.9 nM
[7]
  IC50: 6.5 nM
[1]
  IC50: 2.9 nM

## C/C=C/CN(C)Cc1ccc2c(c1)OCCO2
[1]
  IC50: > 1000 nM

## CN(C/C=C/c1ccc(C(F)(F)F)cc1)Cc1ccc2c(c1)CCCC2.Cl
[5]
  solubility at 24 h: 690 µg/mL

## CN(C/C=C/c1ccccc1[N+](=O)[O-])Cc1ccc2c(c1)OCCO2
[1]
  IC50: > 1000 nM

## CN(C/C=C/c1cccc(C(F)(F)F)c1)Cc1ccc2c(c1)OCCO2
[1]
  IC50: > 1000 nM

## CN(C/C=C/C=C/C=C/c1ccc(C(F)(F)F)cc1)Cc1ccc2c(c1)OCCO2.Cl
[8]
  IC50: 8.7 µM
[2]
  IC50: 0.4 nM
[3]
  IC50: 1.2 nM
[4]
  IC50: 258 nM
[5]
  solubility at 24 h: 3300 µg/mL
[6]
  IC50: 3.7 nM
[7]
  IC50: 5.3 nM
[1]
  IC50: 1.6 nM

## COc1ccc(/C=C/CN(C)Cc2ccc3c(c2)CCCCC3)cc1.Cl
[5]
  solubility at 24 h: 4200 µg/mL
[6]
  IC50: 7.7 nM
[7]
  IC50: 7.1 nM

## CN(C/C=C/c1ccc(C(F)(F)F)c(F)c1)Cc1ccc2c(c1)OCCO2
[1]
  IC50: 13.7 nM

## CN(C/C=C/c1ccc(C(C)(C)C)cc1)Cc1ccc2c(c1)OCCO2
[1]
  IC50: 156 nM

## CC(=O)NC[C@H]1CN(c2ccc(N3CCOCC3)c(F)c2)C(=O)O1
[9]
  Activity: Active
[10]
  Activity: Active
[11]
  Activity: Active
[12]
  Activity: Active
[13]
  Activity: Active
[14]
  Activity: Active
[15]
  Activity: Active
[16]
  Activity: Active
[17]
  Activity: Active
[18]
  Activity: Active

## CCOc1ccc(/C=C/CN(C)Cc2ccc3c(c2)OCCO3)cc1
[1]
  IC50: 8.2 nM

## CN(C/C=C/c1cccc2ccccc12)Cc1ccc2c(c1)OCCO2
[1]
  IC50: > 1000 nM

## CN(C/C=C/C1CCCCC1)Cc1ccc2c(c1)OCCO2
[1]
  IC50: > 1000 nM

## COc1ccc(/C=C/CN(C)Cc2ccc3c(c2)OCCO3)c(F)c1
[1]
  IC50: 43.5 nM

## COc1ccccc1/C=C/CN(C)Cc1ccc2c(c1)OCCO2
[1]
  IC50: > 1000 nM

## CN(C/C=C/c1ccc(Br)cc1)Cc1ccc2c(c1)OCCO2
[1]
  IC50: 8.2 nM

## Cc1ccccc1/C=C/CN(C)Cc1ccc2c(c1)OCCO2
[1]
  IC50: > 1000 nM

## Cc1cccc(/C=C/CN(C)Cc2ccc3c(c2)OCCO3)c1
[1]
  IC50: 43.4 nM

## CN(C/C=C/c1ccccc1C(F)(F)F)Cc1ccc2c(c1)OCCO2
[1]
  IC50: > 1000 nM

## CN(C/C=C/c1cccc(F)c1)Cc1ccc2c(c1)OCCO2
[1]
  IC50: > 1000 nM

## Cc1ncc2n1-c1ccc(Cl)cc1C(c1ccccc1F)=NC2 [MIDAZOLAM]
[19]
  half-life at 2 µM: 4.2 min

## CN(C/C=C/c1cccc([N+](=O)[O-])c1)Cc1ccc2c(c1)OCCO2
[1]
  IC50: > 1000 nM

## CN(C/C=C/c1ccc(F)cc1)Cc1ccc2c(c1)OCCO2
[1]
  IC50: 20.1 nM

## COc1cccc(/C=C/CN(C)Cc2ccc3c(c2)OCCO3)c1
[1]
  IC50: > 1000 nM

## CN(C/C=C/c1ccc(C#N)cc1)Cc1ccc2c(c1)OCCO2
[1]
  IC50: 19.2 nM

## CN(C/C=C/c1ccc(C(F)(F)F)cc1F)Cc1ccc2c(c1)OCCO2
[1]
  IC50: 8.8 nM

## CN(C/C=C/c1ccc(Cl)cc1)Cc1ccc2c(c1)OCCO2
[1]
  IC50: 6.7 nM

## CN[C@H](CC(C)C)C(=O)N[C@H]1C(=O)N[C@@H](CC(N)=O)C(=O)N[C@H]2C(=O)N[C@H]3C(=O)N[C@H](C(=O)N[C@H](C(=O)O)c4cc(O)cc(O)c4-c4cc3ccc4O)[C@H](O)c3ccc(c(Cl)c3)Oc3cc2cc(c3O[C@@H]2O[C@H](CO)[C@@H](O)[C@H](O)[C@H]2O[C@H]2C[C@](C)(N)[C@H](O)[C@H](C)O2)Oc2ccc(cc2Cl)[C@H]1O
[9]
  Activity: Active
[11]
  Activity: Active
[12]
  Activity: Active
[15]
  Activity: Active
[16]
  Activity: Active
[18]
  Activity: Active

## CN(C/C=C/c1ccco1)Cc1ccc2c(c1)OCCO2
[1]
  IC50: 228 nM

## Cc1ccc(/C=C/CN(C)Cc2ccc3c(c2)OCCO3)cc1.Cl
[8]
  IC50: 4.6 µM
[5]
  solubility at 24 h: 6500 µg/mL
[1]
  IC50: 3.2 nM

## CN(C/C=C/C1CCCC1)Cc1ccc2c(c1)OCCO2
[1]
  IC50: 321 nM

## C[C@@H]1[C@H](O)[C@@H](C)/C=C/C=C/C=C/C=C/C=C/C=C/C=C/[C@H](O[C@@H]2O[C@H](C)[C@@H](O)[C@H](N)[C@@H]2O)C[C@@H]2O[C@](O)(C[C@@H](O)C[C@@H](O)[C@H](O)CC[C@@H](O)C[C@@H](O)CC(=O)O[C@H]1C)C[C@H](O)[C@H]2C(=O)O [AMPHOTERICIN B]
[20]
  CC50 at 72 h: 27.5 µM
[21]
  CC50 at 72 h: 37.8 µM

## COc1ccc(/C=C/CN(C)Cc2ccc3c(c2)OCCO3)cc1
[1]
  IC50: 48.6 nM

## CN(C/C=C/c1ccc(-c2ccccc2)cc1)Cc1ccc2c(c1)OCCO2
[1]
  IC50: 4.1 nM

## CN(C/C=C/c1cccs1)Cc1ccc2c(c1)OCCO2
[1]
  IC50: 221 nM

## CN(C/C=C/c1ccc(Cl)cc1Cl)Cc1ccc2c(c1)OCCO2
[1]
  IC50: 15 nM

## CN(C/C=C/c1ccccc1Cl)Cc1ccc2c(c1)OCCO2
[1]
  IC50: 90.3 nM

## CN(C/C=C/c1ccccc1)Cc1ccc2c(c1)OCCO2
[1]
  IC50: 371 nM
